Measured values published in patent US11266667B2, “ABX196 for use in the treatment of bladder cancer” (ABIVAX, priority 2017, dated 2022).

Tested on: MBT-2 tumors
Test: Anti-tumoral activity in MBT-2 syngeneic ectotopic (subcutaneous) tumor model
Type: in vivo, mouse
Design: key to Statistical significance for tumor growth versus Anti-PD-1: p value < 0.05*; ns: Ns: non significant
Protocol: The aim of this study is to determine the anti-tumoral activity of ABX196 or of anti-PD-1 antibody, administered systemically alone, in MBT2 syngeneic ectotopic models and in particular, to evaluate the capacity of these agents to treat established sub-cutaneous tumors.
Anti-PD-1 antibody (ref.: BE0146, BioXcell; clone: RMP1-14, reactivity: mouse; isotype: Rat IgG2a; storage conditions: +4° C.). Anti-PD-1 antibody is prepared in phosphate buffered saline (PBS) or other suitable vehicle according to manufacturer's recommendation. The anti-PD-1 antibody is administered at the dose of 10 mg/kg. Anti-PD-1 antibody is injected into the peritoneal cavity of mice (Intraperitoneally, IP). Anti-PD-1 antibody is administered at a dose volume of 10 mL/kg/adm.
ABX196 is provided as a solution at […] and is administered at the dose of 100 ng per mouse. ABX196 is injected by the intravenous route in the caudal vein of mice (IV, bolus). ABX196 is administered at a fixed dose volume of 100 μL (i.e. approximately 5 mL/kg/adm. for one mouse weighing 20 g).
Tumor cells are grown as monolayer at 37° C. in a humidified atmosphere (5% CO2, 95% air). The culture medium is RPMI 1640 containing 2 mM L-glutamine (ref: BE12-702F, Lonza, Verviers, Belgium) supplemented with 10% fetal bovine serum (ref: 3302, Lonza). Tumor cells are adherent to plastic flasks. For experimental use, tumor cells are detached from the culture flask by a 5-minutes treatment with trypsin-versene (ref: BE02-007E, Lonza), in Hanks' medium without calcium or magnesium (ref: BE10-543F, Lonza) and neutralized by addition of complete culture medium.
68 (sixty-eight) healthy female C3H/HeJ (C3H/HeOuJ) mice, 6-7 weeks old, are obtained from The Jackson Laboratory (Bar Harbor, Me.) for the MBT-2 model.
MBT-2 tumors are induced by subcutaneous injection of 1×10^6 cells in 200 μL of RPMI 1640 into the right flank of the sixty-eight female animals.
The treatment starts when the tumors reach a mean volume of 80-120 mm^3 (day 13 in this experiment). The sixty-eight mice for the MBT-2 model are randomized according to their individual tumor volume into 4 groups each (one not shown) of 12 animals using Vivo Manager® software (Biosystemes, Couternon, France). A statistical test (analysis of variance, ANOVA) is performed to test for homogeneity between groups. The treatment schedule was chosen as follows:
Animals from group 1 receive an IV injection of ABX196 vehicle and an IP injection of anti-PD-1 antibody vehicle,
Animals from group 2 receive an IV injection of 100 ng of ABX196,
Animals from group 3 receive twice weekly administrations of anti-PD-1 antibody,
Tumor growth inhibition (T/C) is defined as the ratio of the median tumor volumes of treated versus control group. The optimal value is the minimal T/C ratio reflecting the maximal tumor growth inhibition achieved.

[1] = day 20, one way ANOVA, pair wise Bonferroni's multiple comparison test

## CCCCCCCCCCCCCCCCCCCCCCCC(=O)N[C@@H](CO[C@H]1O[C@H](CNC(C)=O)[C@H](O)[C@H](O)[C@H]1O)[C@H](O)[C@H](O)CCCCCCCCCCCCCC [ABX196]
C3H/HeJ mice with subcutaneous MBT-2 tumors, day 23 after tumor induction, ABX196 100 ng IV Q1Dx1, anti-PD-1 10 mg/kg IP TWx2
  T/C (%) (tumor growth inhibition, ratio of median tumor volumes of treated versus control group): 54%
[1]
  Statistical significance for tumor growth versus Anti-PD-1: ns
  Statistical significance for tumor growth versus Vehicle: * (p value < 0.05*)
Subcutaneous MBT-2 tumors, ABX196 100 ng IV Q1Dx1
  Mean tumor volume in function of time after tumor induction (FIG. 1), compared with anti-PD-1 antibodies: reduces more efficiently the tumor volume than anti-PD-1 antibodies
Subcutaneous MBT-2 tumors, day 23, ABX196 100 ng IV Q1Dx1
  Tumor growth inhibition (FIG. 2), compared with anti-PD-1 antibodies: inhibits more efficiently the tumor growth than anti-PD-1 antibodies
